Assay results reported in ChEMBL document CHEMBL1201862, “PubChem BioAssay data set” (2004).
Activity calls are given as the source filed them.

Tests used:
[1] = NIH-3T3 fibroblast cytotoxicity, dose response, cytotoxicity control, cell-based, fluorescence, Alamar Blue, secondary assay (AID 2327); assay type: functional;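 further: NIH-3T3 mouse fibroblasts cultured with fluconazole at 8 µg/mL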
[2] = test system: Streptococcus sp. 'group A'; experiment: growth inhibition of control SK(-) GAS strain, dose response, counter-screen for streptokinase expression inhibitor project, luminescence, kanamycin, BacTiterGlo, confirmation (AID 1900); assay type: functional, organism-based
[3] = inhibitors of SNCA 5'UTR-driven reporter translation, confirmation, H4 neuroglioma cells, luminescence (AID 1988); assay type: functional, cell-based
[4] = cytotoxicity toward NIH3T3 fibroblasts, dose response, counter-screen, cell-based, ATP luminescence, mouse fibroblasts (AID 2010); assay type: functional;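 further: cells exposed to compound for about 90 hours before reading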
Streptococcus = experiment: Group A Streptococcus viability loss, dose response, counter-screen for streptokinase expression inhibitor project, luminescence, BacTiterGlo (AID 1915); assay type: functional, organism-based;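 further: potency for reduction of bacterial viability or growth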
Exodeoxyribonuclease V = Exodeoxyribonuclease V (Escherichia coli (strain K12), UniProt P04993+P07648+P08394); experiment: E. coli RecBCD inhibitors, dose response, counter-screen for AddAB inhibitor project, absorbance, V66 E. coli, mutant T4 phage (AID 492957); assay type: functional, cell-based, Escherichia coli str. K-12 substr. MG1655
[5] = target: ATP-dependent molecular chaperone HSP82 (Candida albicans (strain WO-1) (Yeast), UniProt C4YTQ8); experiment: loss of DOC-induced GRE-beta-galactosidase reporter signal, dose response, Hsp90 inhibitor project, S. cerevisiae, luminescence (AID 2400); assay type: functional, cell-based;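 further: beta-galactosidase luminescence from glucocorticoid response element reporter as proxy for Hsp90 function; inhibitor potency where signal loss means Hsp90 inhibition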
[6] = target: Luciferin 4-monooxygenase (Photinus pyralis, UniProt P08659); experiment: Counter Screen for Luciferase-based Assay Positives. [Related pubchem assays: 620, 618, 411 ]
Estrogen receptor = target: T1, Estrogen receptor (Homo sapiens, UniProt P03372);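 further: potency for inhibiting coactivator peptide recruitment to the receptor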
T1 sequence (P03372 whole entry): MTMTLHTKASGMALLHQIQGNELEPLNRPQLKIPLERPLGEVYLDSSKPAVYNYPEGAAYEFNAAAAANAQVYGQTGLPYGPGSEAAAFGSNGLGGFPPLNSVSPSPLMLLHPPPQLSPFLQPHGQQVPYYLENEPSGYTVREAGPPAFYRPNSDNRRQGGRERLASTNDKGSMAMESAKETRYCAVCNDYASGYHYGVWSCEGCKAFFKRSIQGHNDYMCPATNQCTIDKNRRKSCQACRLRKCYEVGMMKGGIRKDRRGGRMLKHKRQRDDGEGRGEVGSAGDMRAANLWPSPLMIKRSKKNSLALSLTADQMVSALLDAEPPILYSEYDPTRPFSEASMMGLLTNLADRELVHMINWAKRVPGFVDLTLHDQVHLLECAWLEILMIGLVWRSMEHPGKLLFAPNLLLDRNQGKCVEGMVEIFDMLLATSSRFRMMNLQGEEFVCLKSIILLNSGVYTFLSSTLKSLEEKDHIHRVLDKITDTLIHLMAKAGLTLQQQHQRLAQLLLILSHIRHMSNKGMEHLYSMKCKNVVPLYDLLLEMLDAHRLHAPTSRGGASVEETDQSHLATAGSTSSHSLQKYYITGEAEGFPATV

Estrogen receptor beta [7] = target: T2, Estrogen receptor beta (Homo sapiens, UniProt Q92731);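 further: recombinant ER-beta bound to coactivator SRC1 peptide in presence of estradiol agonist; inhibitors block coactivator peptide binding and lower the FRET signal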
T2 sequence (Q92731 whole entry): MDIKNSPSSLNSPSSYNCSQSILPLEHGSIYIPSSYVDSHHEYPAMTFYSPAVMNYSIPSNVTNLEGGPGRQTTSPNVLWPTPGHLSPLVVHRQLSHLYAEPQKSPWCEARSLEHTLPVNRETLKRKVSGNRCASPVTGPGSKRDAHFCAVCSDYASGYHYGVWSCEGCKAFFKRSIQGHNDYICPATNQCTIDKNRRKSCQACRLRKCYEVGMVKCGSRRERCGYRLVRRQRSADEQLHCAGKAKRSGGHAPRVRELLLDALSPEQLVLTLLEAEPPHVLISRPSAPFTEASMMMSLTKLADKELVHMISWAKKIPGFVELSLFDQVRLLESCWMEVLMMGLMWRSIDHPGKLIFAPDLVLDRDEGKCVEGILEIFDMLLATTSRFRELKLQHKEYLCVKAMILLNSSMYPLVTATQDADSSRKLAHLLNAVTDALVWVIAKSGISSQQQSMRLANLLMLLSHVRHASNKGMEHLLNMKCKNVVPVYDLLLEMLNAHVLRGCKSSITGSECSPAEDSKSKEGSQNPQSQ

Estrogen receptor beta [8] = target: T2, Estrogen receptor beta; experiment: ERβ–SRC-3 coactivator interaction inhibitors, confirmation, orthogonal assay, biochemical, ELISA, streptavidin-HRP readout (AID 1060)
HT-1080 = experiment: cytotoxicity in HT1080 fibrosarcoma cells, cell-based, fluorescence readout (AID 620); assay type: functional; details: Homo sapiens
[9] = target: Serine/threonine-protein kinase TBK1 (Homo sapiens, UniProt Q9UHD2); experiment: Navigating the Kinome. Panel member name: TBK1; assay type: functional
Serine/threonine-protein kinase TBK1, sequence (Q9UHD2 whole entry): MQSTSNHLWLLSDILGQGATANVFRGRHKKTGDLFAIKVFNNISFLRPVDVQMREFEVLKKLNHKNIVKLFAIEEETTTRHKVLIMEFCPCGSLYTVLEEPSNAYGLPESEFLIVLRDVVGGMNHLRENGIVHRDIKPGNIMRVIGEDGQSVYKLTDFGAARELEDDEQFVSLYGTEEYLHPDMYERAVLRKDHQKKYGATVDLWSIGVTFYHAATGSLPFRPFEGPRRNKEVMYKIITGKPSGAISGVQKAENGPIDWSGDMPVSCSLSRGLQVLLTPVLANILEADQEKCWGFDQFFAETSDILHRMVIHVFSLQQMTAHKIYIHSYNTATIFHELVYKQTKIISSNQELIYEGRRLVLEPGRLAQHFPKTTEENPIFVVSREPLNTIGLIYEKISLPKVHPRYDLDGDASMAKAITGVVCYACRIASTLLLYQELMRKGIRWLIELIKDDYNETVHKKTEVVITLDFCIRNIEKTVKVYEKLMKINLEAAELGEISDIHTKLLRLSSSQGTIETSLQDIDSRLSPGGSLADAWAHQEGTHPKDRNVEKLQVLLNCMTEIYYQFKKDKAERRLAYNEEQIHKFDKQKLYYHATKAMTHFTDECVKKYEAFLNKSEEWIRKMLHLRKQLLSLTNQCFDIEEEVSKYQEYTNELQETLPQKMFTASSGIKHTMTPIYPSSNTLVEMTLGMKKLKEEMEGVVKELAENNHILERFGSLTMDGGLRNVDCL

[10] = target: 5'-AMP-activated protein kinase catalytic subunit alpha-1 (Homo sapiens, UniProt Q13131); assay type: functional
[11] = target: Tyrosine-protein kinase receptor TYRO3 (Homo sapiens, UniProt Q06418); assay type: functional;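 further: TYRO3 value obtained as one member of a kinome-wide profiling panel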
Tyrosine-protein kinase receptor TYRO3, sequence (Q06418 whole entry): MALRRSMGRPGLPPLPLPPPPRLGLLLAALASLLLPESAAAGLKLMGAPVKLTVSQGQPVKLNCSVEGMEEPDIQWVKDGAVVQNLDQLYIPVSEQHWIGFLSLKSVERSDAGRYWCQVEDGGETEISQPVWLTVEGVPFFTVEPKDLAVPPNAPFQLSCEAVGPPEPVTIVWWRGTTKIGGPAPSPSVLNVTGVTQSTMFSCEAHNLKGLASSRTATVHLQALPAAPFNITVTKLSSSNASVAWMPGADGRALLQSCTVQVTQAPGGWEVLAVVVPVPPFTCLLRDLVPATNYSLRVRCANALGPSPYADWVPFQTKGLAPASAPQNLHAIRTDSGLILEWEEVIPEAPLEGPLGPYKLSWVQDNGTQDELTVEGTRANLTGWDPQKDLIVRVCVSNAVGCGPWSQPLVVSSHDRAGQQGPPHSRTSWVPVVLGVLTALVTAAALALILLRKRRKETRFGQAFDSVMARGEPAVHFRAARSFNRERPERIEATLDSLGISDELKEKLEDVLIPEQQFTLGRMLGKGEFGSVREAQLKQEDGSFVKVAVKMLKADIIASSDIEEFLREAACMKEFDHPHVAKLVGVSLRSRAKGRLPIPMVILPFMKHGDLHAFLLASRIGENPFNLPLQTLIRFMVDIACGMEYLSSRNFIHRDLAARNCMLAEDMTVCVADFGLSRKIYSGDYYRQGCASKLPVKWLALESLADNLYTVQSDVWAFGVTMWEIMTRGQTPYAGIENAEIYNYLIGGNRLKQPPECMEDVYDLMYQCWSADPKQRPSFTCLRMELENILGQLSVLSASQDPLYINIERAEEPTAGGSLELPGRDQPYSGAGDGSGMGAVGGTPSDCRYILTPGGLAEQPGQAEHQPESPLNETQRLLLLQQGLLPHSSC

Activin receptor type-1 = Activin receptor type-1 (Homo sapiens, UniProt Q04771); experiment: Navigating the Kinome. Panel member name: ACVR1; assay type: functional
Activin receptor type-1, sequence (Q04771 whole entry): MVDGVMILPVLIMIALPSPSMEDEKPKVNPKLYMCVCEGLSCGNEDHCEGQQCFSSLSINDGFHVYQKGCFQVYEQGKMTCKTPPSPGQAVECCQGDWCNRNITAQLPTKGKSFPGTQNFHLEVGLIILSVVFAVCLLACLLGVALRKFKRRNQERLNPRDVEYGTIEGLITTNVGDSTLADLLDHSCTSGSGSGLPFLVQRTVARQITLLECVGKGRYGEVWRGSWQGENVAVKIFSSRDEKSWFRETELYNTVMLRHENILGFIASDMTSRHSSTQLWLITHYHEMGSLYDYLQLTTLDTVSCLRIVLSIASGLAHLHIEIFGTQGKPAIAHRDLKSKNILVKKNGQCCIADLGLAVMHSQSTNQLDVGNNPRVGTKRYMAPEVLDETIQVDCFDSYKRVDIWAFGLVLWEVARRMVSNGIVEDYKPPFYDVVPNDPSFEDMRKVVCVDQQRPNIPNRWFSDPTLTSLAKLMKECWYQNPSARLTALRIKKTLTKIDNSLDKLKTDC

[12] = target: Serine/threonine-protein kinase PAK 4 (Homo sapiens, UniProt O96013); assay type: functional;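 further: value obtained within a kinome profiling panel in which PAK4 was one of the panel members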
[13] = target: Fibroblast growth factor receptor 1 (Homo sapiens, UniProt P11362); assay type: functional
[14] = target: Casein kinase I isoform alpha (Homo sapiens, UniProt P48729); assay type: functional
[15] = target: Mitogen-activated protein kinase 9 (Homo sapiens, UniProt P45984); assay type: functional;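 further: value from a kinome panel profiling assay, MAPK9 panel entry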
Mitogen-activated protein kinase 9, sequence (P45984 whole entry): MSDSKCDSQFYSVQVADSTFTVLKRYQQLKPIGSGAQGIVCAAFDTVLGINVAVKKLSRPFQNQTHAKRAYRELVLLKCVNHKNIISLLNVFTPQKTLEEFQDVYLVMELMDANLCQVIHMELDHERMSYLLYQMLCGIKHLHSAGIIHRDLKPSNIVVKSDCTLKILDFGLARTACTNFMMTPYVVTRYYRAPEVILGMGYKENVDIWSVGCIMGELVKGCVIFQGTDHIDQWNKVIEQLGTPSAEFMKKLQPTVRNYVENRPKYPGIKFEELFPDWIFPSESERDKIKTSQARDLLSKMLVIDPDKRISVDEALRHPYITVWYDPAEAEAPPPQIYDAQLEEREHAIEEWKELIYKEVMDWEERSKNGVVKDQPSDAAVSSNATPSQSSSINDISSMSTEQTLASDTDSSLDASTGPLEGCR

[16] = target: Serine/threonine-protein kinase TAO1 (Homo sapiens, UniProt Q7L7X3); assay type: functional
[17] = target: Hepatocyte growth factor receptor (Homo sapiens, UniProt P08581); assay type: functional;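 further: kinase panel profiling across the kinome, with MET as the panel member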
[18] = target: Serine/threonine-protein kinase Chk1 (Homo sapiens, UniProt O14757); assay type: functional;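 further: measured as one member of a kinome-wide kinase profiling panel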
Serine/threonine-protein kinase Chk1, sequence (O14757 whole entry): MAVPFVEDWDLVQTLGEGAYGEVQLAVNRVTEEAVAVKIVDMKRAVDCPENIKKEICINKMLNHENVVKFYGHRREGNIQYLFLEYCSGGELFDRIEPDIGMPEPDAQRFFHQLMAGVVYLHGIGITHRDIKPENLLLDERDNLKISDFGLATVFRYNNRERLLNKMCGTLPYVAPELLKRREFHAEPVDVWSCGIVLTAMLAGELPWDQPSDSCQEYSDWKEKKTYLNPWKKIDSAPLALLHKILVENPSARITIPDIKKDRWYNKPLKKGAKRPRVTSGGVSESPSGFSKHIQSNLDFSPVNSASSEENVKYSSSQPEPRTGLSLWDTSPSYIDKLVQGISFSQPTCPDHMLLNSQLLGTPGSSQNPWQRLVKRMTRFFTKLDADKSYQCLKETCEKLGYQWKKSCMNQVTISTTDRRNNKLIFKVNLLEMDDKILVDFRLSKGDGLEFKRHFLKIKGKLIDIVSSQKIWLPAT

[19] = target: Vascular endothelial growth factor receptor 2 (Homo sapiens, UniProt P35968); assay type: functional
[20] = target: Insulin-like growth factor 1 receptor (Homo sapiens, UniProt P08069); experiment: Navigating the Kinome. Panel member name: IGF1R; assay type: functional
Insulin-like growth factor 1 receptor, sequence (P08069 31-736 limits assumed): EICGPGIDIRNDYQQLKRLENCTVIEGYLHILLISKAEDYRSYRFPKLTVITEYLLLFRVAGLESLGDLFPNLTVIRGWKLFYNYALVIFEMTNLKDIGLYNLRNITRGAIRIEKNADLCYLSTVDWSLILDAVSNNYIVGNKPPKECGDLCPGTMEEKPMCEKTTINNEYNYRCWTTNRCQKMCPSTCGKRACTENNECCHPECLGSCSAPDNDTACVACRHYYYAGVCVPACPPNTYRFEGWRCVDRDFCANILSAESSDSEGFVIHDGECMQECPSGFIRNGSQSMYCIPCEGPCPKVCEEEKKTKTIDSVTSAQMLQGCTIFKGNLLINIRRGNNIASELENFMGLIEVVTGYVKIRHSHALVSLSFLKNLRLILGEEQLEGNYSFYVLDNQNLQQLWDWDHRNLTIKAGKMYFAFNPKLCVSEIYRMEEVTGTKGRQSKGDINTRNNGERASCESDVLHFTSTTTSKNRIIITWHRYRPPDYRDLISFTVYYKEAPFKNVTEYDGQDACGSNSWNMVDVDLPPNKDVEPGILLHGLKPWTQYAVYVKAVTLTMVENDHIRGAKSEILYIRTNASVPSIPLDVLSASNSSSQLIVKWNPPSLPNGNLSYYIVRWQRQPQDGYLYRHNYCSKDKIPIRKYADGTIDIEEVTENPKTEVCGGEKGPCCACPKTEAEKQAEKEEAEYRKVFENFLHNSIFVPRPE
Insulin-like growth factor 1 receptor, sequence (P08069 741-1367 limits assumed): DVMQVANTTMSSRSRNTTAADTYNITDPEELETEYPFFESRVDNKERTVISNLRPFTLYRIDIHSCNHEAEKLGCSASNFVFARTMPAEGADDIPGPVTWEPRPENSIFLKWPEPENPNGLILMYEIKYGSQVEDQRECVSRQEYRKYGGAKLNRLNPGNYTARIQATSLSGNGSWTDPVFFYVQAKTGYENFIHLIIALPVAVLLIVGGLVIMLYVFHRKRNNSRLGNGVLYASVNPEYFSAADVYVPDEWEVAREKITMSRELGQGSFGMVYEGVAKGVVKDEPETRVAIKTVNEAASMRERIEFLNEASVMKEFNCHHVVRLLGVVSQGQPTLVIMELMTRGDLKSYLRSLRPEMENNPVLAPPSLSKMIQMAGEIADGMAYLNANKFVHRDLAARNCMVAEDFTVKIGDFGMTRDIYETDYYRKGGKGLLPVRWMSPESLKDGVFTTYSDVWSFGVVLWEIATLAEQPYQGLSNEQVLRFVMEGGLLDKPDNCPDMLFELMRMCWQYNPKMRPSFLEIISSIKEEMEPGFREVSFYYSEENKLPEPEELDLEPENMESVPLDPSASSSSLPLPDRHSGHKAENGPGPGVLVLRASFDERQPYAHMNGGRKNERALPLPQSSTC

[21] = target: Dual specificity tyrosine-phosphorylation-regulated kinase 1B (Homo sapiens, UniProt Q9Y463); experiment: Navigating the Kinome. Panel member name: DYRK1B; assay type: functional
Aurora kinase B = Aurora kinase B (Homo sapiens, UniProt Q96GD4); assay type: functional
[22] = target: Rho-associated protein kinase 1 (Homo sapiens, UniProt Q13464); assay type: functional;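 further: measured within a broad kinome-wide panel profiling many kinases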
[23] = target: Tyrosine-protein kinase Fyn (Homo sapiens, UniProt P06241); assay type: functional
[24] = target: Cyclin-dependent kinase 8 (Homo sapiens, UniProt P49336); experiment: Navigating the Kinome. Panel member name: CDK8; assay type: functional
[25] = target: Vascular endothelial growth factor receptor 1 (Homo sapiens, UniProt P17948); assay type: functional;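 further: measured within a kinome-wide profiling panel, FLT1 as the panel member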
[26] = target: Inhibitor of nuclear factor kappa-B kinase subunit epsilon (Homo sapiens, UniProt Q14164); experiment: Navigating the Kinome. Panel member name: IKBKE; assay type: functional
[27] = target: Calcium/calmodulin-dependent protein kinase type II subunit alpha (Homo sapiens, UniProt Q9UQM7); experiment: Navigating the Kinome. Panel member name: CAMK2A; assay type: functional
[28] = target: Leukocyte tyrosine kinase receptor (Homo sapiens, UniProt P29376); experiment: Navigating the Kinome. Panel member name: LTK; assay type: functional

CN1CCN(C(c2ccc(C(F)(F)F)cc2)c2cc(Cl)c3cccnc3c2O)CC1 (stereo not given)
EC50 [1]: 10.9 µM (inconclusive)
EC50 [2]: 0.558 µM (active)
EC50 [3]: 8.87 µM (active)
EC50 [4]: 6.54 µM (active)
EC50 (Streptococcus): 6.51 µM (active)
IC50 (Exodeoxyribonuclease V): > 119 µM (inactive)
EC50 [5]: 6.72 µM (active)

NC(=O)c1c(NC(=O)c2cc3ccccc3o2)sc2c1CCC2
EC50 [6]: 1.7 µM (active)
IC50 (Estrogen receptor): 23.5 µM (active)
IC50 (Estrogen receptor beta [7]): > 50 µM (not active)
IC50 (Estrogen receptor beta [8]): 0.0552 µM (not active)
EC50 (HT-1080): > 50 µM (not active)
EC50 (cells): > 67.5 µM (inactive)

O=C(NC(CCO)c1ccccc1)c1ccc(-c2ccncc2)cc1 (stereo not given)
Ki [9]: > 3.16 µM (inactive)
Ki [10]: > 3.16 µM (inactive)
Ki [11]: > 3.16 µM (inactive)
Ki (Activin receptor type-1): > 3.98 µM (inactive)
Ki [12]: > 5.01 µM (inactive)
Ki [13]: > 3.98 µM (inactive)
Ki [14]: > 3.98 µM (inactive)
Ki [15]: > 3.98 µM (inactive)
Ki [16]: > 6.31 µM (inactive)
Ki [17]: > 2.51 µM (inactive)
Ki [18]: > 3.16 µM (inactive)
Ki [19]: > 2.51 µM (inactive)
Ki [20]: > 2.51 µM (inactive)
Ki [21]: > 2.51 µM (inactive)
Ki (Aurora kinase B): > 3.98 µM (inactive)
Ki [22]: 0.00631 µM (active)
Ki [23]: > 6.31 µM (inactive)
Ki [24]: 2.51 µM (active)
Ki [25]: > 3.98 µM (inactive)
Ki [26]: > 3.16 µM (inactive)
Ki [27]: > 7.94 µM (inactive)
Ki [28]: > 2.51 µM (inactive)
